Tests used:
[1] = Histological analysis (H&E) of major organs after 21 days treatment; format: in vivo, mice; settings: 100 mg/kg, q.d., oral
Protocol: To evaluate the behavior of MK256 in vivo we did a full pharmacokinetics (PK) analysis of MK256 in mice. […] In the MOLM-14 xenograft model, we treated mice with 10 mg/kg, 50 mg/kg and 100 mg/kg of MK256 for 6 hrs, after which tumors from each treatment group were harvested and processed for western blotting analysis. […] We also performed a histological analysis of the major organs (bone, brain, heart, intestine, kidney, liver and lung) of mice after they were treated with 100 mg/kg of MK256 for 21 days (q.d, oral) (Figure 8). […] In summary, MK256 offered a desirable solubility, permeability, hepatocyte stability, toxicology, and pharmacokinetics/pharmacodynamics (PK/PD) profile.
Figure 8 Evaluation of the toxicity of MK256 in vivo. Histological data (H&E staining) obtained in the major organs (bone, brain, heart, intestine, kidney, liver, and lung) of the mice treated with MK256 (100 mg/kg, q.d., oral) for 21 days.

SET-2 = assay: Cell proliferation assay (CellTiter-Glo, 7-day); format: cell-based; settings: Homo sapiens, SET-2, 168 h
[2] = MDCK-MDR1 permeability assay; format: in vitro ADME; settings: dog, MDCK-MDR1
Protocol: (§1) MDCK-MDR1 cells were plated into 96-well Millipore Millicell-96 plates at 7,500 cells/75 μL/well and incubated for three days at 37°C with 5% CO2. Cells were washed with Hank’s Balanced Salt Solution (HBSS) with 5 mM HEPES for 30 minutes before the experiment began. MK256 was prepared by diluting DMSO stock into HBSS buffer, resulting in a final DMSO concentration of 0.1%. Prior to the experiment, cell monolayer integrity was verified by […] electrical resistance (TEER). The transport experiment was initiated by adding MK256 to the apical (75 μL) or basal (250 μL) side. Transport plates were incubated at 37°C in a humidified incubator with 5% CO2. Samples were taken from the donor and acceptor compartments after one hour and analyzed by liquid chromatography with tandem mass spectrometry (LC/MS/MS). Digoxin was used as reference control. Apparent permeability (Papp) values were calculated using the following equation: Papp = (dQ/dt)/A/C0, where dQ/dt is the initial rate of amount of test compound transported across the cell monolayer, A is the surface area of the filter membrane, and C0 is the initial concentration of the test compound, calculated for each direction using a 4-point calibration curve by LC/MS/MS. Net flux ratio between the two directional transports was calculated by the following equation: Ratio = Papp, B-A/Papp, A-B, where Papp, B-A and Papp, A-B represent the apparent permeability of test compound from the basal-to-apical and apical-to-basal side of the cellular monolayer, respectively. Recovery was calculated based on the compound concentration at the end of the experiment, compared to that at the beginning of the experiment, adjusted for volumes.

MDR1 = assay: MDCK-MDR1 permeability assay; format: in vitro ADME; settings: dog, MDCK-MDR1, read-out: Efflux Ratio (B-A/A-B)
Protocol: as §1

[3] = test system: p-STATs and MCL-1 in MV-4-11 cells; assay: Western blot of STAT pathway in MV-4-11 cells; format: cell-based; settings: 48 hrs
Protocol: For the in vitro western blot study, MV-4-11 and MOLM-14 cells were plated (6-well) at 5 × 10^5 cells per well with medium containing 1% FBS overnight. MK-256 was added in different concentrations at different time points. […] Total protein concentration was measured using the Pierce BCA protein Assay Kit (23227, Thermo Fisher Scientific). Proteins were separated on SDS-PAGE and transferred to Nitrocellulose membrane.

MOLM-14 xenograft model = assay: MOLM-14 xenograft efficacy study, single agent; format: in vivo, NOD SCID mice; settings: 50 mg/kg twice a day
Protocol: These favorable properties led us to evaluate the efficacy of MK256 in vivo using the MOLM-14 cell line to examine if the compound could inhibit tumor growth in the MOLM-14 xenograft model. Mice were given 100 ul of 50 mg/kg of MK256 or 100 ul of saline twice a day for 21 days following a 5-day on/ 2-day off schedule. Tumors from two groups of mice were all initially ~ 300 mm^3. Tumors of the mice in the control group continued to grow quickly during the 21-day period, with the average tumor volume reaching 1600 mm^3 on day 22, when we measured tumors for the last time. In the contrast, tumors of the mice in the treatment group shrank to 200 mm^3 on average by day 22 (Figure 9A). Average tumor weight was 0.16 g for the treatment group and 1.85 g for the control group (Figure 9B). […] Tumors collected on day 22 were then processed and analyzed with western blot.
Female NOD SCID mice were purchased from Charles River Laboratories (Wilmington, USA) or bred at the animal facilities of the University of California San Francisco. All animal experiments were carried out under protocols approved by the Institutional Animal Care and Use Committee of the University of California San Francisco. For MOLM-14 model, 200 ul of 1 × 10^6 cells combined with matrigel (v/v, 1:1) were injected subcutaneously in the right flank of NODSCID mice. Tumors were allowed to grow for two weeks to reach a tumor volume about 200 mm^3 before mice were randomly grouped. The animals were treated for three weeks on a 5 days on/2 days off schedule by oral gavage with MK256 (dissolved in saline) alone or in combination with Venetoclax (dissolved in 5% DMSO + 50% PEG 300 + 5% Tween 80 + ddH2O). In the single treatment study, MK256 was administered by mice twice a day at 50 mg/kg. In the combination study, MK256 (10 or 50 mg/kg) and was coadministered with Venetoclax (25 mg/kg) once a day. Tumor volume and body weight were monitored once every 3 days. Tumor volume was calculated as L × W^2/2, where L and W were the length and width of the tumor, respectively.

Nc1nccc2c(Br)cc3cc(C(=O)O)ccc3c12 [MK256]
histology of major organs (bone, brain, heart, intestine, kidney, liver and lung) [1]: did not cause visible pathological changes | IC50 (SET-2): 212 nM | Papp A→B at 1 h, 5 μM [2]: 57 ×10⁻⁶ cm/s | Papp B→A at 1 h, 5 μM [2]: 14 ×10⁻⁶ cm/s | efflux ratio at 1 h, 5 µM (MDR1): 0.2 | expression levels of p-STAT1 (S727), p-STAT3(S727), p-STAT5(S726) ([3]; 30 nM to 1 uM): trend of reduction | expression of MCL-1 ([3]; 30 nM to 1 uM, dose-dependent): reduced expression | expression level of MCL-1, p-STAT3(S727) and p-STAT5(S726) ([3]; 1 uM): remained at minimal levels | expression level of p-STAT1(S727) ([3]; 1 uM): abrogated completely | expression levels of p-STAT1(Y701) and p-STAT5(Y694) ([3]; high concentrations): unaffected | expression level of p-STAT1(S727) and p-STAT5(S726) in tumors collected on day 22 (MOLM-14 xenograft model): down regulate | average tumor volume on day 22 (MOLM-14 xenograft model; 5-day on/2-day off, 21 days, start ~300 mm^3, control 1600 mm^3): 200 mm^3 | average tumor weight (MOLM-14 xenograft model; day 22, control 1.85 g): 0.16 g | average body weight at end of study (MOLM-14 xenograft model; from 23.5 g at start, control 23.4 g to 25.7 g): 23.9 g

Source: paper PMC9629815, “MK256 is a novel CDK8 inhibitor with potent antitumor activity in AML through downregulation of the STAT pathway” (Oncotarget, 2022)
